Holding throughout (test): inhibition of tumour cell growth, NCI panel, 48 h
For assay [1], the system named is MDA-N.
The test system of assay [2] is SNB-19.
The subject of assay [3] is TK-10.
The subject of assay [4] is T47D.
Assay [5] relates to HCC 2998.
Assay [6] has as its system UO-31.
The subject of assay [7] is EKVX.
Assay [8] has as its system NCI-H226.
The test system of assay [9] is MOLT-4.
For assay [10], the system named is BT-549.
In assay [11] the test system is SW-620.
In assay [12] the test system is UACC-62.
Assay [13] deals with U-251.
Assay [14] concerns SK-MEL-2.
In assay [15] the test system is ACHN.
Assay [16] relates to 786-0.
Assay [17] deals with SN12C.
The subject of assay [18] is SF-539.
Assay [19] has as its system MDA-MB-435.
Assay [20] deals with Hs-578T.

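Briefly, cells in 96-well plates were exposed to five compound concentrations for 48 h, and endpoints were estimated by linear interpolation. GI50 is the concentration that inhibits growth by half.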 Calls of active or inactive are those of the source. No stated cut-off is given here; in the data, active = GI50 up to about 1.1 µM and inactive = higher. Some results are limits rather than exact numbers.

Consider `C=C(CN(C)C)C(=O)c1ccc(C)cc1C`, for which the GI50 in assay [1] was 4.55 µM (inactive); in [2] it was 32.7 µM (inactive); in assay [3] it was 8.73 µM (inactive); in assay [4] it was 3.31 µM (inactive); in assay [5], 17.1 µM (inactive); in assay [6] it was 12.2 µM (inactive). Further, the GI50 in assay [7] was 12.9 µM (inactive); in assay [8] it was 15.5 µM (inactive); in assay [9] it was 1.01 µM (active); in assay [10], 3.59 µM (inactive); in assay [11] it was 2.74 µM (inactive); in assay [12], 10.5 µM (inactive). Moreover, the GI50 was 16.9 µM (inactive) in [13]; 18 µM (inactive) in assay [14]; 7.73 µM (inactive) in assay [15]; 5.19 µM (inactive) in assay [16]; 11.8 µM (inactive) in assay [17]; 12.7 µM (inactive) in assay [18]. The GI50 in assay [19] is 5.94 µM (inactive); in assay [20], 26.1 µM (inactive).

In the case of `CC(C)C(C/C=C1\CC(CO)(COC(=O)C2CCCCC2)OC1=O)C(C)C` (stereo not given), the GI50 in [1] is 24.1 µM (inactive); in assay [2], 16.3 µM (inactive); in assay [3] it was 21 µM (inactive); in assay [4], 21.2 µM (inactive); in [5] it was 27.9 µM (inactive); in assay [6], 17.4 µM (inactive). In addition, the GI50 in assay [7] is 19 µM (inactive); in assay [8], 18.2 µM (inactive); in assay [9] it was 6.87 µM (inactive); in assay [10], 23.7 µM (inactive); in [11], 21.3 µM (inactive); in [12], 43.8 µM (inactive). Also, the GI50 is 19 µM (inactive) in [13]; > 100 µM (inactive) in assay [14]; 16 µM (inactive) in assay [15]; 13.7 µM (inactive) in assay [16]; 16.7 µM (inactive) in assay [17]; 20.3 µM (inactive) in assay [18]. Besides, the GI50 in assay [19] was 44.8 µM (inactive); in assay [20], 13.2 µM (inactive).

Consider `Cn1c2ccccc2c(=NNc2ccc(C(=O)O)cc2)c2ccccc21`, for which the GI50 is 17.7 µM (inactive) in [1]; 21.8 µM (inactive) in assay [2]; 21.3 µM (inactive) in assay [3]; 13.4 µM (inactive) in assay [4]; 8.38 µM (inactive) in assay [5]; 15.1 µM (inactive) in assay [6]. Moreover, the GI50 in assay [7] is 9.25 µM (inactive); in [8] it was 17.7 µM (inactive); in assay [9], 11.3 µM (inactive); in [10], 21.6 µM (inactive); in assay [11], 16.1 µM (inactive); in assay [12], 18.5 µM (inactive). Moreover, the GI50 was 11.1 µM (inactive) in [13]; 19.6 µM (inactive) in assay [14]; 15.3 µM (inactive) in assay [15]; 19.8 µM (inactive) in [16]; 18.1 µM (inactive) in assay [17]; 19.2 µM (inactive) in [18]. For the same compound, the values for the GI50 in assay [19] and in assay [20] were 19 µM (inactive) and 18.7 µM (inactive), respectively.

As for `C/C(=N\NC(=S)N1CCCCCC1)c1ccccn1`, the GI50 was 0.42 µM (active) in assay [1]; 0.0521 µM (active) in assay [2]; 0.573 µM (active) in [3]; 0.00438 µM (active) in assay [4]; 0.158 µM (active) in [5]; 0.543 µM (active) in assay [6]. The GI50 in assay [7] is 0.0641 µM (active); in [8] it was 0.565 µM (active); in [9], 0.00676 µM (active); in assay [10], 0.17 µM (active); in [11], 0.0148 µM (active); in assay [12], 0.00881 µM (active). In addition, the GI50 in assay [13] is 0.00522 µM (active); in assay [14], 0.132 µM (active); in assay [15], 0.00405 µM (active); in [16] it was 0.0352 µM (active); in assay [17], 0.548 µM (active); in [18] it was 0.0506 µM (active). Further, the GI50 in assay [19] is 0.601 µM (active); in assay [20], 0.322 µM (active).

As for `C=C1C(=O)O[C@H]2[C@H]1[C@H](OC(=O)/C(C)=C\C)C[C@]1(CO1)[C@@H]1[C@H](OC(C)=O)C=C(C)[C@]21O` [EUPAROTIN ACETATE], the GI50 is 13.2 µM (inactive) in assay [1]; > 58.5 µM (inactive) in [2]; 7.73 µM (inactive) in assay [3]; 14.5 µM (inactive) in [4]; 19.3 µM (inactive) in [5]; 13.7 µM (inactive) in [6]. The GI50 was 17 µM (inactive) in assay [7]; > 43 µM (inactive) in assay [8]; 5.18 µM (inactive) in [9]; 8.13 µM (inactive) in assay [10]; 8.85 µM (inactive) in [11]; 15.5 µM (inactive) in [12]. Besides, the GI50 in assay [13] was 21.9 µM (inactive); in assay [14], 25.5 µM (inactive); in assay [15], 10.6 µM (inactive); in [16], 7.46 µM (inactive); in [17], 14 µM (inactive); in [18] it was 30.3 µM (inactive). The GI50 in assay [19] is 17.9 µM (inactive); in assay [20], > 56.2 µM (inactive).

In the case of `O=C(NC1(c2cc3ccccc3s2)CCCCC1)C1CCC1`, the GI50 in assay [1], in [2], in assay [3], in assay [4], in assay [5] and in assay [6] was > 100 µM (inactive) each time. Moreover, the GI50 in [7], in [8], in assay [9], in assay [10], in [11] and in assay [12] was > 100 µM (inactive) in each case. The GI50 in assay [13] is > 100 µM (inactive); in [14] it was > 100 µM (inactive); in assay [15], > 100 µM (inactive); in [16] it was > 100 µM (inactive); in [17], > 100 µM (inactive); in [18] it was 23.1 µM (inactive). Further, the GI50 in assay [19] is > 100 µM (inactive); in [20], 37.1 µM (inactive).

As for `COc1cc2c(cc1OC)C1C=NC(C2)c2cc(OC)c(OC)cc21` (stereo not given), the GI50 in assay [1] is > 100 µM (inactive); in assay [2] it was > 100 µM (inactive); in assay [3], > 100 µM (inactive); in assay [4] it was 90.8 µM (inactive); in [5], > 100 µM (inactive); in [6], 60.1 µM (inactive). In addition, the GI50 is 85.9 µM (inactive) in assay [7]; 6.97 µM (inactive) in assay [8]; 40.5 µM (inactive) in [9]; 81.8 µM (inactive) in assay [10]; > 100 µM (inactive) in assay [11]; > 100 µM (inactive) in [12]. The GI50 in assay [13], in assay [14], in assay [15], in [16], in [17] and in assay [18] was > 100 µM (inactive) each time. Besides, the GI50 in assay [19] and in [20] was > 100 µM (inactive) throughout.

These data come from ChEMBL document CHEMBL1201862, “PubChem BioAssay data set” (2004).
